The results in this text go back to patent US6706740B2, “Fungicidal heterocyclic aromatic amides and their compositions, methods of use and preparation” (Dow AgroSciences LLC, priority 1999, dated 2004).

Like-named read-outs stand apart in the source and are kept apart here.

For test [1], the system named is Puccinia recondita—PUCCRT. In words: Brown Rust of Wheat, in vivo whole plant, 24 Hour Protectant. Particulars: for pest or weed control at 100 ppm: Puccinia, read-out: PUCCRT in vivo 1 Day Protectant.
In test [2] the test system is Stagonospora nodorum (Leptosphaeria nodorum—LEPTNO). In words: In vitro fungal growth inhibition, Stagonospora nodorum (LEPTNO). The test is classed as cell-based. The settings on record: Leptosphaeria, read-out: LEPTNO in vitro Growth Inhibition.
The next test relates to Septoria tritici—SEPTTR. Kind of test: Leaf Blotch of Wheat, in vivo whole plant, 24 Hour Protectant. Particulars: for pest or weed control at 100 ppm: Zymoseptoria tritici, 24 h, read-out: SEPTTR in vivo 1 Day Protectant.
Test [3] relates to Phytophthora infestans (PHYTIN). In words: microbe, parasite or virus in culture. The test is classed as cell-based. The settings on record: Phytophthora infestans, read-out: PHYTIN in vitro Growth Inhibition.
The subject of test [4] is Rhizoctonia solani (RHIZSO). Kind of test: microbe, parasite or virus in culture. The settings on record: Rhizoctonia solani, read-out: RHIZSO in vitro Growth Inhibition. The test is classed as cell-based.
The subject of test [5] is Magnaporthe grisea (Pyricularia oryzae—PYRIOR). In words: microbe, parasite or virus in culture. In kind it is cell-based. The settings on record: Pyricularia oryzae, read-out: PYRIOR in vitro Growth Inhibition.
The test system of test [6] is Leptosphaeria nodorum—LEPTNO. Kind of test: Glume Blotch of Wheat, in vivo whole plant, 24 Hour Protectant. The settings on record: for pest or weed control at 100 ppm: Leptosphaeria, read-out: LEPTNO in vivo 1 Day Protectant.
Test [7] has as its system Phytophthora infestans—PHYTIN. Kind of test: whole plant or invertebrate. The test is classed as in vivo. The settings on record: Phytophthora, in Solanum lycopersicum, 24 h, read-out: PHYTIN in vivo 1 Day Protectant.
The next test deals with Erysiphe graminis—ERYSGT. In words: Powdery Mildew of Wheat, in vivo whole plant, 24 Hour Protectant. The settings on record: Erysiphe, read-out: ERYSGT in vivo 1 Day Protectant.
Test [8] has as its system Mycosphaerella graminicola (Septoria tritici—SEPTTR). In words: In vitro fungal growth inhibition, Mycosphaerella graminicola (SEPTTR). In kind it is cell-based. The settings on record: Zymoseptoria tritici, read-out: SEPTTR in vitro Growth Inhibition.
For the next test, the system named is Ustilago maydis (USTIMA). Kind of test: microbe, parasite or virus in culture. In kind it is cell-based. The settings on record: Mycosarcoma maydis, read-out: USTIMA in vitro Growth Inhibition.
Setting [9] is: wheat plants sprayed at 100 ppm, inoculated after 24 hours, control of fungal infection vs untreated plants.
Setting [10] is: 100 ppm spray, wheat, 24 hour protectant, % control of fungal infection vs untreated plants.
The mark [11] stands for this setting: 100 ppm spray, wheat, 24 hour protectant, control of fungal infection vs untreated plants.
Where [12] appears, read: 100 ppm spray, 24 hour protectant, wheat, control of fungal infection vs untreated plants.

For `COc1ccnc(C(=O)NC(COC(=O)C(C)Cc2ccccc2)C(=O)OC(C)C)c1OC(C)=O` (centres unmarked) [Compound 588], the “PUCCRT in vivo 1 Day Protectant” value in [1] (setting [9]) is given as “+ +”. Also, the inhibition at 25 ppm (in test [2] (25 ppm in the growth medium); in test [3]; in test [4]; in [5]; in test [8] (25 ppm in the growth medium); in the test with Ustilago maydis (USTIMA)) was under 80% throughout. Moreover, the pest or weed control at 100 ppm is under 25% in the test with Septoria tritici—SEPTTR (setting [9]), 25 to 74% in test [6] (setting [9]), under 25% in test [7] and under 25% in the test on Erysiphe graminis—ERYSGT (setting [9]).

Regarding `C/C=C/C(=O)Oc1c(OC)ccnc1C(=O)N[C@H]1COC(=O)[C@H](Cc2ccccc2)[C@@H](OC(=O)C(C)C)[C@H](C)OC1=O` [Compound 600], the “PUCCRT in vivo 1 Day Protectant” value in [1] (setting [10]) is given as “+ +”. Also, the inhibition (usually the share of the control response that was lost under treatment) at 25 ppm in [2] (25 ppm in growth medium) was over 80%; in test [3] it was under 80%; in test [4] it was under 80%; in test [5], over 80%; in [8] (25 ppm in growth medium), under 80%; with Ustilago maydis (USTIMA), under 80%. Moreover, the “SEPTTR in vivo 1 Day Protectant” value in the test on Septoria tritici—SEPTTR (setting [10]) was “+ +”. Further, the “LEPTNO in vivo 1 Day Protectant” value in test [6] (setting [10]) is “+ +”. For the same compound, the pest or weed control at 100 ppm (in test [7]; with Erysiphe graminis—ERYSGT (setting [10])) was under 25% in each case.

As to `COC(=O)C(COC(=O)C(COC(=O)C(C)C)Cc1ccccc1)NC(=O)c1nccc(OC)c1OC(C)=O` (centres unmarked) [Compound 587], the pest or weed control at 100 ppm was 25 to 74% in test [1] (setting [9]); 25 to 74% with Septoria tritici—SEPTTR (setting [9]); 25 to 74% in test [6] (setting [9]); under 25% in test [7]; under 25% in the test with Erysiphe graminis—ERYSGT (setting [9]). In addition, the inhibition at 25 ppm (in [2] (25 ppm in the growth medium); in test [3]; in test [4]; in test [5]; in test [8] (25 ppm in the growth medium); in the test with Ustilago maydis (USTIMA)) was under 80% in each case.

With `COc1ccnc(C(=O)Nc2cc(C)c(OC(=O)C(C)C)c(C)c2)c1O` [Compound 455], the pest or weed control at 100 ppm in test [1] (setting [11]) is under 25%; in the test with Septoria tritici—SEPTTR (setting [11]), 25 to 74%; in [6] (setting [11]) it was 25 to 74%; in test [7], under 25%; with Erysiphe graminis—ERYSGT (setting [11]), under 25%. Further, the inhibition at 25 ppm was over 80% in test [2] (25 ppm in growth medium); under 80% in test [3]; under 80% in test [4]; under 80% in test [5]; under 80% in test [8] (25 ppm in growth medium); over 80% in the test on Ustilago maydis (USTIMA).

For `COc1ccnc(C(=O)NC2C3(C)CCC(C3)C2(C)C)c1O` (centres unmarked) [Compound 288], the pest or weed control at 100 ppm in test [1] (setting [12]) was under 25%; in the test with Septoria tritici—SEPTTR (setting [12]) it was 25 to 74%; in test [6] (setting [12]) it was 25 to 74%; in [7], under 25%; in the test on Erysiphe graminis—ERYSGT (setting [12]), under 25%. Further, the inhibition at 25 ppm was under 80% in test [2] (25 ppm in growth medium); under 80% in [3]; over 80% in test [4]; under 80% in [5]; under 80% in test [8] (25 ppm in growth medium); under 80% in the test on Ustilago maydis (USTIMA).

Turning to `COc1ccc(O)c(C(=O)NC2COC(=O)[C@H](Cc3ccccc3)[C@@H](OC(=O)C(C)C)[C@H](C)OC2=O)n1` (some centres unmarked) [Compound 481], the pest or weed control at 100 ppm is under 25% in test [1] (setting [9]); 25 to 74% in the test with Septoria tritici—SEPTTR (setting [9]); 25 to 74% in test [6] (setting [9]); under 25% in [7]; under 25% in the test with Erysiphe graminis—ERYSGT (setting [9]). In addition, the inhibition at 25 ppm (in test [2] (25 ppm in the growth medium); in test [3]; in test [4]; in [5]; in test [8] (25 ppm in the growth medium); in the test with Ustilago maydis (USTIMA)) was under 80% throughout.

For the compound `COCCC(=O)Oc1c(OC)ccnc1C(=O)N[C@H]1COC(=O)[C@H](Cc2ccccc2)[C@@H](OC(=O)CCOC)[C@H](C)OC1=O` [Compound 705], in [1] (setting [10]), the “PUCCRT in vivo 1 Day Protectant” value is “+ +”. Moreover, the pest or weed control at 100 ppm with Septoria tritici—SEPTTR (setting [10]) was 25 to 74%; in [7], under 25%; in the test on Erysiphe graminis—ERYSGT (setting [10]), under 25%. In addition, the “LEPTNO in vivo 1 Day Protectant” value in test [6] (setting [10]) is reported as “+ +”.

For `CC(C)C(=O)O[C@H]1[C@H](C)OC(=O)[C@@H](NC(=O)c2ccncc2O)COC(=O)[C@@H]1Cc1ccccc1` [Compound 513], the pest or weed control at 100 ppm in [1] (setting [9]) is 25 to 74%; in the test with Septoria tritici—SEPTTR (setting [9]) it was under 25%; in test [7], under 25%; with Erysiphe graminis—ERYSGT (setting [9]), under 25%. In [6] (setting [9]), the “LEPTNO in vivo 1 Day Protectant” value is listed as “+ +”.

With `Cc1ccnc(C(=O)NC2CC(C)(C)CC(C)(C)C2)c1OC(=O)C(C)C` [Compound 571], the pest or weed control at 100 ppm in test [1] (setting [9]) is under 25%; in the test on Septoria tritici—SEPTTR (setting [9]) it was under 25%; in test [6] (setting [9]) it was 25 to 74%; in test [7] it was 25 to 74%; with Erysiphe graminis—ERYSGT (setting [9]) it was under 25%.

On to `COc1ccnc(C(=O)NC2CCN(C(=O)c3ccccc3)CC2)c1O` [Compound 308], for which the pest or weed control at 100 ppm in [1] (setting [12]) is under 25%; with Septoria tritici—SEPTTR (setting [12]) it was 25 to 74%; in test [6] (setting [12]), under 25%; in test [7], under 25%; in the test on Erysiphe graminis—ERYSGT (setting [12]), 25 to 74%. In the test with Ustilago maydis (USTIMA), the inhibition at 25 ppm was under 80%.

With `COc1ccnc(C(=O)N[C@H]2COC(=O)[C@H](Cc3ccccc3)C[C@H](C)OC2=O)c1O` [Compound 382], the pest or weed control at 100 ppm is 25 to 74% in [1] (setting [11]), 25 to 74% with Septoria tritici—SEPTTR (setting [11]) and under 25% with Erysiphe graminis—ERYSGT (setting [11]). The inhibition at 25 ppm in [2] (25 ppm in growth medium) was under 80%; in [3], under 80%; in test [4], under 80%; in [5] it was under 80%; in test [8] (25 ppm in growth medium), over 80%; with Ustilago maydis (USTIMA), under 80%. For the same compound, the “LEPTNO in vivo 1 Day Protectant” value in test [6] (setting [11]) was “+ +”.

For the compound `CCCC[C@H]1C(=O)O[C@H](C)C(NC(=O)c2cccc(NC(=O)c3nccc(OC)c3O)c2O)C(=O)O[C@@H](C)[C@@H]1OC(=O)CC(C)C` (some centres unmarked) [Compound 473], the pest or weed control at 100 ppm in test [1] (24 h) is 25 to 74%; in the test on Septoria tritici—SEPTTR it was 25 to 74%; in test [7], under 25%; in the test on Erysiphe graminis—ERYSGT (24 h), under 25%. For the same compound, the “LEPTNO in vivo 1 Day Protectant” value in test [6] (in vivo) was “+ +”.

Consider `COc1ccnc(C(=O)N[C@H]2COC(=O)[C@H](Cc3ccccc3)[C@@H](OC(=O)C(C)C)[C@H](C)OC2=O)c1O[Si](C)(C)C(C)(C)C` [Compound 720], for which, in [1] (setting [10]), the “PUCCRT in vivo 1 Day Protectant” value was “+ +”. Further, in the test on Septoria tritici—SEPTTR (setting [10]), the “SEPTTR in vivo 1 Day Protectant” value is listed as “+ +”. For the same compound, the “LEPTNO in vivo 1 Day Protectant” value in test [6] (setting [10]) is on record as “+ +”. Also, the pest or weed control at 100 ppm (in test [7]; with Erysiphe graminis—ERYSGT (setting [10])) was under 25% in each case.
